Values of other authors in patent publication US11779012B2, “Compositions and methods for preserving red blood cells and platelets” (RythRx Therapeutics, LLC, priority 2013, dated 2023).
pKd: −log10 of the molar value.

Assays:
[1] = target: pleckstrin homology (PH) domain of Akt (Homo sapiens, UniProt P31749); settings: binding to PH domain of Akt
[2] = after intravenous administration

Chain of pleckstrin homology (PH) domain of Akt (P31749 5-108 limits assumed): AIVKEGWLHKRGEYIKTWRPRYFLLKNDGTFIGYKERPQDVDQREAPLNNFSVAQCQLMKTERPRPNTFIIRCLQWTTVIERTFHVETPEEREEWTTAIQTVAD

For `CN1N=C(N)c2cn([C@@H]3O[C@H](COP(=O)(O)O)[C@@H](O)[C@H]3O)c3ncnc1c23` [TCNP, ((2R,3S,4R,5R)-5-(3-amino-5-methyl-1,4,5,6,8-pentaazaacenaphthylen-1(5H)-yl)-3,4-dihydroxytetrahydrofuran-2-yl)methyl dihydrogen phosphate], the pKd [1] is given as 6.16 and the “half-life (retention of TCNP in human RBC)” value [2] is given as 89 h.
